Assay results reported in US4260805A, “1-Descarboxy-1-ketoester (ketoacid)-prostaglandins” (American Cyanamid Company, priority 1979, dated 1981).

Tested on: bronchospasms elicited by intravenous injections of acetylcholine
Experiment: Bronchodilator activity against bronchospasm elicited by acetylcholine, Konzett procedure
Type: in vivo, guinea pigs
Details: Cavia porcellus; spasmogen acetylcholine; three logarithmic cumulative intravenous doses; guinea pig
Description: The compounds of this invention are useful as bronchodilators for the treatment of asthma and chronic bronchitis. Bronchodilator activity is determined in guinea pigs against bronchospasms elicited by intravenous injections of 5-hydroxytryptamine, histamine or acetylcholine by the Konzett procedure. [See J. Lulling, P. Lievens, F. El Sayed and J. Prignot, Arzneimittel-Forschung, 18, 955 (1968).]
In Table which follows bronchodilator activity for representative compounds of this invention against one or more of three spasmogenic agents is expressed as an ED50 determined from the results obtained with three logarithmic cummulative intravenous doses. In this assay, these compounds of this invention provide an effect of longer duration than does natural 1-PGE1 or 1-PGE2.

CCCCCC(C)(O)/C=C/[C@H]1[C@H](O)CC(=O)[C@@H]1CCCCCCC(=O)C(=O)OCC (relative stereo) [dl-1,9-dioxo-1-carbethoxy-11α,15-dihydroxy-15-methyl-13-trans-prostene]
ED50: > 3.2 mg/kg
